The IC50 is the concentration at which inhibition is half-maximal. One may read the viability, T/C as the result in the treated group divided by that in the control group, in per cent.

The test deals with KRAS-mutant PDC tumor spheroid with HUVEC/MSC, viability. The experiment in a line: Anticancer human tumor 327498-153-R-J2-PDC patient-derived uterine carcinosarcoma cell line growth inhibition [KRAS2]. To be noted: for IC50: curve of first compound; for viability, T/C: stronger effect = lower value. From the text: Multicellular complex tumor spheroid response to RAS pathway inhibitors in combination with a targeted agents in patient-derived cell lines with oncogenic KRAS variants from multiple cancer types
A high-throughput screen of multi-cell type tumor spheroids was designed to identify active combinations of targeted small molecules and KRAS pathway inhibitors. Complex spheroids include a stromal component modeled by human endothelial cells (HUVEC) and fibroblasts modeled by human mesenchymal stem cells (MSCs). The concentration ranges selected for each drug and investigational agent were based upon clinically achievable concentrations if the clinical Cmax of the agent was known.
Compounds. The drugs and investigational agents: BI-3406 (NSC825286), BAY-293 (NSC824723), batoprotafib (TNO155; NSC825523), sotorasib (AMG 510; NSC818433), MRTX1257 (NSC819558), elimusertib (BAY 1895344; NSC800525), molibresib (GSK525762; NSC774829), temuterkib (LY3214996; NSC803410), venetoclax (NSC766270), alisertib (NSC759677), olaparib (NSC753686), talazoparib (NSC767125), erdafitinib (NSC781556), ipatasertib (NSC767898), cabozantinib (NSC761068), nintedanib (NSC756659), abemaciclib (NSC768073), docetaxel (NSC628503), trametinib (NSC758246), and sapanisertib (NSC764658) were obtained from the National Cancer Institute (NCI) Developmental Therapeutics Program Chemical Repository. The FDA-approved anticancer drug set is available from the Developmental Therapeutics Program. […] The stock solutions were prepared in dimethyl sulfoxide (DMSO, Sigma-Aldrich, St. Louis, MO, cat. D2650) at 800-fold the tested concentration and stored at -70 degrees C prior to their use. All drugs and investigational agents were tested over a range starting from a high concentration at or near the clinical Cmax and decreasing in half-log increments. If the clinical Cmax for an agent had not been determined, the highest concentration tested was 10 microM.
Cell Culture. All cells were maintained in an incubator at 37 degrees C and 5% CO2 with 95% humidity. The PDC lines were cultured according to standard operating procedures established by the NCI PDMR (https://pdmr.cancer.gov/sops/default.htm). Briefly, all PDCs were thawed and cultured in Matrigel-coated flasks prepared with a working solution of 1X Ham's F-12 nutrient mix, without supplementation (Invitrogen, Waltham, MA, cat. 11765054), 100 U/mL penicillin-streptomycin (Invitrogen, cat. 15140122), and 2.5% Matrigel (Corning Inc., Corning, NY, cat. 354248) for the first three passages. All PDCs were cultured in complete DMEM/F-12 media containing advanced DMEM/F-12 (Invitrogen, cat. 12634028), 4.9% defined fetal bovine serum, heat inactivated (HyClone Laboratories Inc., Logan, UT, cat. SH30070.03HI), 389 ng/mL hydrocortisone (Sigma-Aldrich, cat. H4001), 9.7 ng/mL human EGF recombinant protein (Invitrogen, cat. PHG0313), 23.4 microg/mL adenine (Sigma-Aldrich, cat. A2786), 97.3 U/mL penicillin-streptomycin (Invitrogen, cat. 15140122), 1.9 mM L-glutamine (Invitrogen, cat. 25030081), and 9.7 microM Y-27632 dihydrochloride (Tocris Bioscience, Bristol, United Kingdom, cat. 1254). The PDCs were cultured in complete DMEM/F12 media without 9.7 microM Y-27632 dihydrochloride for at least two passages prior to the screen. The established cell line HOP-62 was cultured in RPMI 1640 medium, HEPES (Invitrogen, cat. 22400105) with 10% defined fetal bovine serum (HyClone Laboratories Inc., cat. SH30070.03) and 2 mM L-glutamine (Invitrogen, cat. 25030081). The pooled donor HUVEC were cultured in endothelial cell growth medium 2 (PromoCell, Heidelberg, Germany, cat. C-22011) and the hMSC were cultured in mesenchymal stem cell growth medium 2 (PromoCell, cat. C-28009). For all experiments, HUVEC and hMSC were used at passages </=5, while the malignant cell lines were used at passages </=15. […]

SMILES strings stand for the structures.
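Also: spheroids exposed to agents for seven days before reading.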
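For viability, T/C in this document: 100% = DMSO vehicle wells so lower means fewer viable cells.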

On to `Cn1nccc1Nc1nccc(-c2cc3c(s2)C(C)(C)N(CCN2CCOCC2)C3=O)n1` + C=CC(=O)N1CCN(c2nc(OCC3CCCN3C)nc3c2CCN(c2cccc4cccc(C)c24)C3)CC1CC#N, for which the IC50 (second compound 0.0316 µM) was 422 nM; the concentration for half-maximal inhibition (IC50) (second compound 0.1 µM) amounted to 227 nM; the IC50 (second compound 0.316 µM) was less than 31.6 nM; the IC50 (second compound 1 µM) is less than 31.6 nM; the IC50 (second compound 3.16 µM) is less than 31.6 nM. The viability, T/C reads like this: (second compound 0.0316 µM, first compound 0.0316 µM) 62.5%; (second compound 0.0316 µM, first compound 0.1 µM) 54.6%; (second compound 0.0316 µM, first compound 0.316 µM) 55.6%; (second compound 0.0316 µM, first compound 1 µM) 25.2%; (second compound 0.0316 µM, first compound 3.16 µM) 40.4%; (second compound 0.0316 µM, first compound 10 µM) 34.7%. Moreover, the viability, T/C is 60.2% (second compound 0.1 µM, first compound 0.0316 µM); 62.1% (second compound 0.1 µM, first compound 0.1 µM); 45.5% (second compound 0.1 µM, first compound 0.316 µM); 33% (second compound 0.1 µM, first compound 1 µM); 36.2% (second compound 0.1 µM, first compound 3.16 µM); 28.8% (second compound 0.1 µM, first compound 10 µM). Further, the viability, T/C by setting is: (second compound 0.316 µM, first compound 0.0316 µM) 42.9%; (second compound 0.316 µM, first compound 0.1 µM) 45%; (second compound 0.316 µM, first compound 0.316 µM) 37.6%; (second compound 0.316 µM, first compound 1 µM) 33.6%; (second compound 0.316 µM, first compound 3.16 µM) 31.1%; (second compound 0.316 µM, first compound 10 µM) 27.6%. The viability, T/C (second compound 1 µM, first compound 0.0316 µM) was 39.6%; the viability, T/C (second compound 1 µM, first compound 0.1 µM) is 31.1%; the viability, T/C (second compound 1 µM, first compound 0.316 µM) was 29.7%; the viability, T/C (second compound 1 µM, first compound 1 µM) was 33.3%; the viability, T/C (second compound 1 µM, first compound 3.16 µM) is 30.3%; the viability, T/C (second compound 1 µM, first compound 10 µM) is 21.3%. In addition, the viability, T/C was 0.15% (second compound 3.16 µM, first compound 0.0316 µM); 0.17% (second compound 3.16 µM, first compound 0.1 µM); 0.15% (second compound 3.16 µM, first compound 0.316 µM); 0.16% (second compound 3.16 µM, first compound 1 µM); 0.54% (second compound 3.16 µM, first compound 3.16 µM); 0.21% (second compound 3.16 µM, first compound 10 µM).
For `COC(=O)c1ccc2c(C(=Nc3ccc(N(C)C(=O)CN4CCN(C)CC4)cc3)c3ccccc3)c(O)[nH]c2c1`, the viability, T/C (compound 0.0316 µM) is 89.5% [middle of 5 runs]; the viability, T/C (compound 0.1 µM) is 94.6% [middle of 5 runs]; the viability, T/C (compound 0.316 µM) was 84.9% [middle of 5 runs].

Values taken from PubChem BioAssay AID1963867 (Molecular Pharmacology Branch, DTP, NCI, 2024).
